For assay [1], the target named is T1, TRB3/MDM2 protein interaction (Homo sapiens, UniProt Q96RU7).
T1 construct: host or cells: BEAS-2B
T1 sequence (Q96RU7 1-358): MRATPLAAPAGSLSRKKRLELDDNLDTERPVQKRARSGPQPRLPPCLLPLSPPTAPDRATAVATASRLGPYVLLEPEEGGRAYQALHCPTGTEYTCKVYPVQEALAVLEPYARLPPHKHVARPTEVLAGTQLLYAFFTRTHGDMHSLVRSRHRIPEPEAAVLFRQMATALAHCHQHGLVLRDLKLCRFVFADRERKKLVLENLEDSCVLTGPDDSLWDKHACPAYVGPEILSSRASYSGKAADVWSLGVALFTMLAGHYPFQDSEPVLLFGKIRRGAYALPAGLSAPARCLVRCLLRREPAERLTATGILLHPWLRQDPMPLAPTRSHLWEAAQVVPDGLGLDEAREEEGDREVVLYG
Put plainly: Co-immunoprecipitation: inhibition of binding of MDM2 to TRB3 in BEAS-2B cells. In kind it is cell-based. Particulars: BEAS-2B cells with TRB3 expression plasmid, 1 mg/mL polypeptide, 12 hours, co-IP with MDM2 antibody. On the procedure: 1. Human lung epithelial BEAS-2B cells (purchased from Institute of Basic Medical Sciences, Chinese Academy of Medical Sciences) were seeded in a 90 mm^2 culture dish. After the cells were adhered to the wall of culture dish, the TRB3 expression plasmid were transferred to the cells according to the method described in Example 5. After 24 hours, 1 mg/mL of the polypeptides MR2, S1, S2, S3, S4, S5, S6, S7, S8, S9, S10 or S11 prepared in Example 1 were added respectively, and the cells were incubated for 12 hours in a 37° C. incubator and then harvested.
2. Co-immunoprecipitation with MDM2 antibody was performed according to the method described in Example 3, followed by detection using TRB3 antibody.

Assay [2] relates to mice with bleomycin-induced pulmonary fibrosis. Put plainly: HE staining pathomorphology and inflammatory score of bleomycin-induced pulmonary fibrosis. In kind it is in vivo, C57BL/6 mice. Particulars: Table 3 groups, 2 mg/kg i.p., after 28 days, grade 0-5. Here is the method: Male C57BL/6 mice were fasted overnight, then anesthetized with 45 mg/kg sodium pentobarbital by injection intraperitoneally (i.p.), and intratracheally injected with bleomycin at a dose of 3 U/kg. The specific operation steps are as follows: cut the neck skin of the mouse with as little trauma as possible, expose the trachea with the assistance of elbow ophthalmic forceps, puncture the trachea and inject about 50 μL of bleomycin into the trachea with a microsyringe, rotate the mouse quickly and stand it upright for 5 minutes in order to make bleomycin evenly enter the left and right lobe, thereby constructing an animal model. The whole operation was performed at a surgical table at about […]. Mice in the sham operation group were intratracheally injected with an equal amount of physiological saline for injection.
General tissue changes and tissue products can be visualized by HE staining method, namely Hematoxylin and Eosin staining method, which is the most commonly used staining method for morphology. Among them, hematoxylin dyeing solution is an alkaline dyeing solution, which mainly makes the chromatin in the nucleus and the ribosome in the cytoplasm purple blue; eosin is an acid dye, which mainly makes the components in the cytoplasm and extracellular matrix red. Pulmonary fibrosis models were made according to the method described in Example 2 and administered in groups according to Table 3. After 28 days, the right lower lobe of lung tissue of the experimental animals was taken, and fixed with 4% (v/v) paraformaldehyde and embedded in paraffin. Section was performed on the largest cross-section of the paraffin block in which the lung tissue embedded, and basic pathological changes was observed through HE staining. […] The administration of polypeptides S1-S11 can reduce lung inflammation caused by bleomycin, and effectively ameliorate lung injury and restore normal lung structure.
The inflammatory grading was observed according to the results of HE staining, and the criteria were as follows (grade 0-5): grade “0”: normal tissue; grade “1”: extremely small inflammatory changes; grade “2”: mild to moderate inflammatory changes without apparent destruction of lung tissue structure; grade “3”: moderate inflammatory injury (thickening of alveolar diaphragm); grade “4”: moderate to severe inflammatory injury with formation of tissue mass, or the normal structure of lung tissue was destroyed by localized pneumonia area; grade “5”: severe inflammatory injury, severe destruction of the localized lung tissue structure, resulting in closure of lumen.
Pulmonary fibrosis models were made according to the method described in Example 2 and administered in groups according to Table 9. After 28 days, the right lower lobe of lung tissue of the experimental animals was taken, and fixed by 4% (v/v) paraformaldehyde and embedded in paraffin. Section was performed on the largest cross-section of the paraffin block in which the lung tissue embedded, and basic pathological changes was observed through HE staining.

Bridge positions count the residues as written; N and C are the ends. Square brackets hold non-standard residues; d marks the D form. Peptide text beside a SMILES is read from it. S5 = C=CCCC[C@](C)(N)C(=O)O

For `CSCC[C@H](NC(=O)[C@H](CC(C)C)NC(=O)[C@@H](N)Cc1c[nH]cn1)C(=O)N[C@@H](C)C(=O)N[C@@H](CS)C(=O)N[C@@H](Cc1ccccc1)C(=O)N[C@H](C(=O)N[C@@]1(C)CCCC=CCCC[C@@](C)(C(=O)N[C@@H](CCCCN)C(=O)N[C@@H](CCCCN)C(=O)N[C@@H](CCCNC(=N)N)C(=O)O)NC(=O)[C@H](CCCCN)NC(=O)[C@H](CCCCN)NC(=O)[C@H](C)NC1=O)[C@@H](C)O` [S8, His-Leu-Met-Ala-Cys-Phe-Thr-S5-Ala-Lys-Lys-S5-Lys-Lys-Arg] (H-HLMACFT[S5]AKK[S5]KKR-OH; staple 8-12; N-terminus and C-terminus assumed), the “interaction of TRB3 and MDM2 protein (FIG. 5, in words)” value (from here on “interaction of TRB3 and MDM2 protein”) in assay [1] is “interrupted”. This compound came in with an Inflammatory score in assay [2] of 2.833.
On the same counts, the results for `CSCC[C@H](NC(=O)[C@H](CC(C)C)NC(=O)[C@@H](N)Cc1c[nH]cn1)C(=O)N[C@@H](C)C(=O)N[C@@H](CS)C(=O)N[C@@H](Cc1ccccc1)C(=O)N[C@H](C(=O)N[C@@H](CS)C(=O)N[C@@]1(C)CCCC=CCCC[C@@](C)(C(=O)N[C@@H](CCCCN)C(=O)N[C@@H](CCCNC(=N)N)C(=O)O)NC(=O)[C@H](CC(C)C)NC(=O)[C@H](CCCCN)NC(=O)[C@H](CCCCN)NC1=O)[C@@H](C)O` [S9, His-Leu-Met-Ala-Cys-Phe-Thr-Cys-S5-Lys-Lys-Leu-S5-Lys-Arg] (H-HLMACFTC[S5]KKL[S5]KR-OH; staple 9-13; N-terminus and C-terminus assumed) are “interrupted” and 2.167.
Turning to `CSCC[C@H](NC(=O)[C@H](CC(C)C)NC(=O)[C@@H](N)Cc1c[nH]cn1)C(=O)N[C@@H](C)C(=O)N[C@@H](CS)C(=O)N[C@@H](Cc1ccccc1)C(=O)N[C@H](C(=O)N[C@@H](CS)C(=O)N[C@@H](C)C(=O)N[C@@]1(C)CCCC=CCCC[C@@](C)(C(=O)N[C@@H](CCCNC(=N)N)C(=O)O)NC(=O)[C@H](CCCCN)NC(=O)[C@H](CC(C)C)NC(=O)[C@H](CCCCN)NC1=O)[C@@H](C)O` [S10, His-Leu-Met-Ala-Cys-Phe-Thr-Cys-Ala-S5-Lys-Leu-Lys-S5-Arg] (H-HLMACFTCA[S5]KLK[S5]R-OH; staple 10-14; N-terminus and C-terminus assumed), the “interaction of TRB3 and MDM2 protein” value in assay [1] was “interrupted”. Further, the Inflammatory score in assay [2] was 3.
With `CSCC[C@H](NC(=O)[C@H](CC(C)C)NC(=O)[C@@H](N)Cc1c[nH]cn1)C(=O)N[C@@H](C)C(=O)N[C@@H](CS)C(=O)N[C@@H](Cc1ccccc1)C(=O)N[C@H](C(=O)N[C@@H](CS)C(=O)N[C@@H](C)C(=O)N[C@@H](CCCCN)C(=O)N[C@@]1(C)CCCC=CCCC[C@@](C)(C(=O)O)NC(=O)[C@H](CCCCN)NC(=O)[C@H](CCCCN)NC(=O)[C@H](CC(C)C)NC1=O)[C@@H](C)O` [S11, His-Leu-Met-Ala-Cys-Phe-Thr-Cys-Ala-Lys-S5-Leu-Lys-Lys-S5] (H-HLMACFTCAK[S5]LKK[S5]-OH; staple 11-15; N-terminus and C-terminus assumed), the “interaction of TRB3 and MDM2 protein” value in assay [1] is listed as “interrupted”. This compound displayed an Inflammatory score in assay [2] of 3.

(Values after patent US20210179680A1, “POLYPEPTIDE, DERIVATIVES THEREOF, AND APPLICATION THEREOF IN PREPARATION OF DRUGS HAVING RESISTANCE TO PULMONARY FIBROSIS” (priority 2016, published 2021).)
